Test results taken from the OPERA property sets (Mansouri et al. 2018).

Question: What does the source list for `CC1CC(C)CC(O)C1` (stereo not drawn)?
Answer: boiling point: 187 °C; melting point: 11.6 °C

Question: Which log10 vapour pressure (mmHg) does the source give for `Nc1ccc(O)c2c1C(=O)c1ccccc1C2=O` here?
Answer: The log10 vapour pressure (mmHg) was -8.52.

Question: And the melting point?
Answer: Its melting point is 216 °C.

Question: Which log10 Koc (L/kg) does the source give for `CCNc1nc(NC(C)CC)nc(OC)n1` (stereo not drawn) here?
Answer: Its log10 Koc (L/kg) is 2.78.

Question: What about the log10 vapour pressure (mmHg) of the same compound?
Answer: Its log10 vapour pressure (mmHg) is -5.14.

Question: And the melting point?
Answer: The melting point was 87 °C.

Question: For `C=CCC(C)(C)C`, which boiling point is on record?
Answer: The boiling point was 72.5 °C.

Question: And the melting point?
Answer: The melting point was -137 °C.

Question: With `O=Nc1ccc(O)c(N=O)c1O` as the compound, how does the melting point read?
Answer: Its melting point is 168 °C.

Question: Which melting point does the source give for `Clc1cc(Cl)c(-c2c(Cl)cccc2Cl)c(Cl)c1` here?
Answer: The melting point was 85 °C.

Question: For `C#CCC=C`, which boiling point is on record?
Answer: The boiling point was 42.5 °C.

Question: With `O=C1OCCO1` as the compound, how does the boiling point read?
Answer: Its boiling point is 248 °C.

Question: And the log10 vapour pressure (mmHg)?
Answer: The log10 vapour pressure (mmHg) was -2.01.

Question: And the melting point?
Answer: Its melting point is 39.5 °C.

Question: And the ready biodegradability?
Answer: The ready biodegradability was “readily biodegradable”.

Question: For `Cc1cc(O)c(C2CC3CCC2(C)C3(C)C)cc1C` (stereo not drawn), which melting point is on record?
Answer: The melting point was 95 °C.

Question: For `CCOP(=S)(OCC)SCC(=O)NC(C)C`, which melting point is on record?
Answer: The melting point was 28.5 °C.

Question: Which boiling point does the source give for `OCC(F)(F)C(F)(F)C(F)(F)C(F)F` here?
Answer: The boiling point was 140 °C.

Question: For `C/C=C/C=O`, which boiling point is on record?
Answer: The boiling point was 103 °C.

Question: And the log10 Henry constant (atm·m³/mol)?
Answer: Its log10 Henry constant (atm·m³/mol) is -4.84.

Question: What about the log10 vapour pressure (mmHg) of the same compound?
Answer: The log10 vapour pressure (mmHg) was 1.48.

Question: What about the melting point of the same compound?
Answer: The melting point was -76.2 °C.

Question: Which melting point does the source give for `CCCCCCCCCCCC(=O)OC(=O)CCCCCCCCCCC` here?
Answer: Its melting point is 41.8 °C.

Question: Which boiling point does the source give for `Fc1nc(F)c(Cl)c(F)n1` here?
Answer: Its boiling point is 114 °C.

Question: Which results are given for `CC=Cc1ccccc1`?
Answer: boiling point: 177 °C; melting point: -28.2 °C

Question: For `O=C([O-])Cc1ccccc1Nc1c(Cl)cccc1Cl.[Na+]`, which melting point is on record?
Answer: The melting point was 284 °C.

Question: Which melting point does the source give for `Cl.NCCc1ccc(O)c(O)c1` here?
Answer: The melting point was 249 °C.

Question: Which boiling point does the source give for `O=C1C=CCC1` here?
Answer: The boiling point was 136 °C.

Question: For `CCOC(=O)c1ccc(OC)c(OC)c1`, which boiling point is on record?
Answer: The boiling point was 296 °C.

Question: What about the melting point of the same compound?
Answer: The melting point was 43.5 °C.

Question: What does the source list for `CCSCC`?
Answer: boiling point: 92.1 °C; log10 Henry constant (atm·m³/mol): -2.77; log10 vapour pressure (mmHg): 1.78; melting point: -104 °C

Question: Which boiling point does the source give for `CCC#CCCCCC` here?
Answer: The boiling point was 157 °C.

Question: Which melting point does the source give for `CCSCC[C@H](N)C(=O)O` here?
Answer: The melting point was 195 °C.

Question: With `Nc1c(Cl)cc(-c2cc(Cl)c(N)c(S(=O)(=O)O)c2)cc1S(=O)(=O)O` as the compound, how does the ready biodegradability read?
Answer: Its ready biodegradability is “not readily biodegradable”.

Question: What does the source list for `OCCN1CCCCC1`?
Answer: boiling point: 202 °C; melting point: 17.9 °C

Question: Which melting point does the source give for `NNC(=O)c1ccc(Cl)cc1` here?
Answer: Its melting point is 164 °C.

Question: Which boiling point does the source give for `C#CC(O)(CC)CC` here?
Answer: The boiling point was 138 °C.

Question: What does the source list for `Clc1cccc2c(Cl)cccc12`?
Answer: log10 Koa: 6.65; melting point: 107 °C

Question: Which melting point does the source give for `O=C1C=CC(=O)N1` here?
Answer: Its melting point is 94 °C.

Question: Which melting point does the source give for `Cc1cc(N)ccc1O` here?
Answer: Its melting point is 176 °C.

Question: With `CCCCC/C=C\C/C=C\CCCCCCCC(=O)O` as the compound, how does the boiling point read?
Answer: Its boiling point is 365 °C.

Question: What about the log10 vapour pressure (mmHg) of the same compound?
Answer: Its log10 vapour pressure (mmHg) is -6.06.

Question: What about the melting point of the same compound?
Answer: The melting point was -8.5 °C.

Question: Which log10 vapour pressure (mmHg) does the source give for `Clc1cc(Cl)c(Cl)c(Oc2ccccc2)c1` here?
Answer: Its log10 vapour pressure (mmHg) is -3.66.

Question: What does the source list for `COC(=O)c1ccccc1C(=O)OC`?
Answer: boiling point: 284 °C; log10 Koc (L/kg): 1.6; log10 vapour pressure (mmHg): -2.51; melting point: 5.5 °C; ready biodegradability: readily biodegradable

Question: For `CC[C@H]1CCCC[C@H]1C`, which boiling point is on record?
Answer: Its boiling point is 154 °C.

Question: With `O=C(/C=C/c1ccccc1)c1ccccc1` as the compound, how does the boiling point read?
Answer: The boiling point was 346 °C.

Question: What about the melting point of the same compound?
Answer: Its melting point is 57.5 °C.

Question: Which melting point does the source give for `CCCCCCCCCCCCCCCCC(CCC)c1ccccc1` (stereo not drawn) here?
Answer: Its melting point is 31.4 °C.

Question: For `CNC(=S)NCc1ccccc1`, which melting point is on record?
Answer: Its melting point is 75 °C.

Question: With `CC(C)(Oc1ccc(CCNC(=O)c2ccc(Cl)cc2)cc1)C(=O)O` as the compound, how does the melting point read?
Answer: The melting point was 186 °C.

Question: Which ready biodegradability does the source give for `CCCCCC=CCC=CCCCCCCCC(=O)O` here?
Answer: Its ready biodegradability is “readily biodegradable”.

Question: With `CCCCCCCCCCCCCC[N+](C)(C)Cc1ccccc1` as the compound, how does the ready biodegradability read?
Answer: The ready biodegradability was “not readily biodegradable”.

Question: For `CN(C)C(N)=O`, which melting point is on record?
Answer: The melting point was 184 °C.

Question: Which melting point does the source give for `CCCCOC(=O)CCC(=O)O` here?
Answer: Its melting point is 8.6 °C.

Question: Which boiling point does the source give for `CCN1CCCC(N)C1` (stereo not drawn) here?
Answer: The boiling point was 155 °C.

Question: With `O=[N+]([O-])c1cccc(-c2ccccc2)c1` as the compound, how does the melting point read?
Answer: The melting point was 62 °C.

Question: With `Nc1ccc(C(=O)O)cc1O` as the compound, how does the melting point read?
Answer: The melting point was 213 °C.

Question: For `ON=Cc1ccncc1`, which melting point is on record?
Answer: Its melting point is 132 °C.

Question: For `Clc1cc(Cl)c2c(oc3c(Cl)cccc32)c1Cl`, which melting point is on record?
Answer: The melting point was 177 °C.

Question: For `Cc1cnc(C)o1`, which boiling point is on record?
Answer: The boiling point was 118 °C.

Question: For `C=C1C(=O)O[C@@H]2[C@H]1CC[C@H](C)[C@]1(O)C=CC(=O)[C@@]21C`, which melting point is on record?
Answer: Its melting point is 164 °C.

Question: With `Clc1ccc(-c2ccccc2)cc1Cl` as the compound, how does the log10 Henry constant (atm·m³/mol) read?
Answer: The log10 Henry constant (atm·m³/mol) was -3.85.

Question: With `Clc1ccc(CSC(Cn2cncn2)=Nc2ccc(Cl)cc2Cl)cc1` as the compound, how does the log10 vapour pressure (mmHg) read?
Answer: Its log10 vapour pressure (mmHg) is -9.2.

Question: What about the melting point of the same compound?
Answer: The melting point was 90 °C.

Question: For `O=S(=O)([O-])CCN1CC[NH+](CCO)CC1`, which melting point is on record?
Answer: The melting point was 234 °C.

Question: With `OCCOc1ccc(N=Nc2ccccc2)cc1` as the compound, how does the log10 vapour pressure (mmHg) read?
Answer: Its log10 vapour pressure (mmHg) is -7.67.

Question: Which boiling point does the source give for `N#CCCOCCC#N` here?
Answer: The boiling point was 306 °C.

Question: What about the log10 vapour pressure (mmHg) of the same compound?
Answer: The log10 vapour pressure (mmHg) was -3.76.

Question: What about the melting point of the same compound?
Answer: Its melting point is -26.3 °C.

Question: And the ready biodegradability?
Answer: Its ready biodegradability is “readily biodegradable”.

Question: Which boiling point does the source give for `CC=CC=CC(=O)OCC` here?
Answer: Its boiling point is 196 °C.

Question: With `O=S(=O)(O)CCCN1CCOCC1` as the compound, how does the melting point read?
Answer: The melting point was 284 °C.

Question: With `CCCCCCCCCCCCCCCCCCC1CCCCC1` as the compound, how does the boiling point read?
Answer: Its boiling point is 409 °C.

Question: What about the melting point of the same compound?
Answer: Its melting point is 41.6 °C.

Question: What does the source list for `CC(C)CC=NO`?
Answer: boiling point: 161 °C; melting point: 48.5 °C

Question: For `CCCCCCCCCCCCCCCCCC(=O)OC(=O)CCCCCCCCCCCCCCCCC`, which melting point is on record?
Answer: Its melting point is 72 °C.

Question: For `O=C(O)c1ccc2cc(C(=O)O)ccc2c1`, which ready biodegradability is on record?
Answer: Its ready biodegradability is “not readily biodegradable”.

Question: Which melting point does the source give for `C[C@@H]1O[C@@H](Oc2c(-c3ccc(O)c(O)c3)oc3cc(O)cc(O)c3c2=O)[C@H](O)[C@H](O)[C@H]1O` here?
Answer: The melting point was 170 °C.

Question: Which results are given for `O=C1CCc2ccccc21`?
Answer: boiling point: 243 °C; melting point: 42 °C

Question: For `CO[C@@H]1[C@H](OC(=O)/C=C/C=C/C=C/C=C/C(=O)O)CC[C@]2(CO2)[C@H]1[C@@]1(C)O[C@@H]1CC=C(C)C`, which melting point is on record?
Answer: Its melting point is 194 °C.

Question: For `CCOC(=O)C=C(C)C(=O)OCC`, which boiling point is on record?
Answer: The boiling point was 228 °C.

Question: With `CCCCCCCCCCCCCCCC#N` as the compound, how does the boiling point read?
Answer: The boiling point was 333 °C.

Question: And the melting point?
Answer: The melting point was 31 °C.

Question: Which melting point does the source give for `O=C(CCCN1CCC(n2c(=O)[nH]c3ccccc32)CC1)c1ccc(F)cc1` here?
Answer: Its melting point is 171 °C.

Question: With `Cc1ccc(F)cc1` as the compound, how does the boiling point read?
Answer: The boiling point was 117 °C.

Question: What about the log10 vapour pressure (mmHg) of the same compound?
Answer: The log10 vapour pressure (mmHg) was 1.32.

Question: And the melting point?
Answer: The melting point was -56 °C.

Question: With `CCCCCC1OC1CC1OC1CCCCCCCC(=O)OCC(COC(=O)CCCCCCCC1OC1CC1OC1CCCCC)OC(=O)CCCCCCCC1OC1CC1OC1CCCCC` (stereo not drawn) as the compound, how does the ready biodegradability read?
Answer: The ready biodegradability was “readily biodegradable”.

Question: With `Ic1cc(I)c(I)c(I)c1` as the compound, how does the melting point read?
Answer: The melting point was 148 °C.
